One assay concerns the target T1, 5-HT1A receptor (Sus scrofa, UniProt A0A4X1UTF5).
T1 construct: Swine hippocampus was homogenized in a 50 mM Tris-Hcl buffer; from tissue; host or cells: swine hippocampus, membrane fraction
T1 sequence (A0A4X1UTF5 1-422): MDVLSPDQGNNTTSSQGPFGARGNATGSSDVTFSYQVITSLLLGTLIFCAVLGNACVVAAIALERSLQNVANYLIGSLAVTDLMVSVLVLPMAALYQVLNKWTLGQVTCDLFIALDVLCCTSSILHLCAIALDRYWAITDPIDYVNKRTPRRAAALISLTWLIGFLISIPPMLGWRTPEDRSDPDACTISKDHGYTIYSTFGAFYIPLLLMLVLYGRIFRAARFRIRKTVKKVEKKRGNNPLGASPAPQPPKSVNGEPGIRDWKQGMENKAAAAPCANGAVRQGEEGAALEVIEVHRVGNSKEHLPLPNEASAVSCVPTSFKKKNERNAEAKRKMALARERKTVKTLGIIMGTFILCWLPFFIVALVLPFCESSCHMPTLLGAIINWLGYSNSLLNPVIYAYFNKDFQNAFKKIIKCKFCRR
The assay is described as follows: Affinity for serotonin 1A receptor: inhibition of [3H]MPPF binding in swine hippocampal membrane fraction. Particulars: for pIC50: [3H]MPPF 0.5 nM, swine hippocampal membrane, 37°C 30 min. Summed up: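 Swine hippocampal membranes incubated 30 min at 37 °C with 0.5 nM [3H]MPPF and test compound in 50 mM Tris-HCl pH 7.4, 1% DMSO, with 10 mM MgCl2 (G-protein-coupled, high-affinity state) or 1 mM Gpp(NH)p (uncoupled, low-affinity state). Bound radioactivity measured by filtration and scintillation counting; nonspecific binding defined with 10 μM WAY-100,635. IC50 in each state; low/high IC50 ratio taken as an estimate of intrinsic activity.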

The test system of assay [1] is urinary reflex of Sprague-Dawley female rats. The assay is described as follows: Inhibitory action against accentuated urinary reflex of rat due to destruction of the superior colliculus (cystometrogram). Particulars: dose 0.3 mg/kg, iv; rat with superior colliculus lesion. The format is in vivo. The text has this:
(1) In the present test, Sprague-Dawley female rates (200-350 g) were used. The rats were subjected to median incision of the abdomen under anesthesia. Thereafter, a hole with a minor diameter was made on the head portion of the bladder, and a catheter used for measurement of an intravesical pressure was placed therein. A catheter used for administration of a test substance was placed in the femoral vein. These catheters were fixed at the occipital region of the rat through the subcutis. One day later, the urinary reflex of the rats was measured with a cystometrogram. Thereafter, the rats were fixed on a brain stereotaxis apparatus under anesthesia, and then subjected to median incision of the scalp. […] Thereafter, electric current was applied (65° C., 4 minutes), so as to damage the brain tissues. After completion of the operation, when the rat awakened from anesthesia, cystometrogram was conducted again to confirm the enhanced state of urinary reflex. A test substance was administered through the catheter placed in the femoral vein, and the action of the test substance to the urinary reflex was evaluated. In addition, the effects of several test substances were compared using the maximal reaction (Emax).

The text below walks through data of US20050256103A1, “Indole derivative having piperidine ring” (Eisai Co., Ltd., priority 2004, published 2005).

Each structure is given as a SMILES string. pIC50: −log10 of the molar value. Read-outs that look alike come from different tables or passages of the source.

As for `CNC(=O)c1ccc2ccn(C3CCN(CCc4c(OC)ccc5c4OC(C)(C)CC5=O)CC3)c2c1` [Compound 20, 1-{1-[2-(7-methoxy-2,2-dimethyl-4-oxochroman-8-yl)ethyl]piperidin-4-yl}-N-methyl-1H-indole-6-carboxamide], the pIC50 (commonly −log10 of the IC50, conventionally taken in molar units) at 5-HT1A receptor (receptor in high affinity (G-protein binding, MgCl2 10 mM) state, read-out: High affinity IC50) was 9.70; on 5-HT1A receptor (receptor in low affinity (G-protein non-binding, Gpp(NH)p 1 mM) state, read-out: Low affinity IC50), 9.80. Moreover, the L/H ratio at 5-HT1A receptor (low affinity IC50 divided by high affinity IC50, 1 or smaller = no intrinsic activity, 2 or greater = intrinsic activity) is 0.8. For the same compound, in assay [1], the “Bladder capacity Emax” value came to 94%.
